Test results as given in patent publication US7608619B2, “Substituted oxazole compounds with analgesic activity” (Gruenenthal GmbH, priority 2005, dated 2009).

Molecular target: T1, human μ-opiate receptor (Homo sapiens, UniProt P35372)
T1 construct: purchased Nen company, Zaventem, Belgium RB-HOM; host or cells: CHO-K1 cells (membrane preparation)
Test: Affinity for the human μ-opiate receptor ([3H]-naloxone displacement, SPA, CHO-K1 membrane preparation)
Settings: test substance 1 μmole/l; displacement of 1 nmole/l [3H]-naloxone; percentage inhibition of the specific binding; read-out: μ-opioid receptor, % inhibition [1 μM]
Method: Method for Determining the Affinity for the Human μ-Opiate Receptor
The receptor affinity for the human μ-opiate receptor is determined in a homogeneous batch in microtiter plates. For this purpose dilution series of the substances to be tested are incubated for 90 minutes at room temperature with a receptor membrane preparation (15-40 μg protein/250 μl incubation batch) of CHO-K1 cells, which express the human μ-opiate receptor (RB-HOM receptor membrane preparation from the Nen company, Zaventem, Belgium), in the presence of 1 nmole/l of the radioactive ligand [^3H]-naloxone (NET719, Nen company, Zaventem, Belgium) and 1 mg WGA-SPA beads (wheat germ agglutinin SPA beads from Amersham/Pharmacia, Freiburg, Germany) in a total volume of 250 μl. 50 mmole/l of Tris-HCl supplemented with 0.05% sodium azide and with 0.06% bovine serum albumin is used as incubation buffer. In order to determine the non-specific binding, 25 μmole/l of naloxone is additionally added. After the end of the 90 minutes' incubation time the microtiter plates are centrifuged for 20 minutes at 1000 g and the radioactivity is measured in a beta counter (Microbeta-Trilux, PerkinElmer Wallac, Freiburg, Germany). The percentage displacement of the radioactive ligand from its binding to the human μ-opiate receptor at a concentration of the test substances of 1 μmole/l is determined and is given as percentage inhibition of the specific binding.

T1 sequence (P35372 whole entry): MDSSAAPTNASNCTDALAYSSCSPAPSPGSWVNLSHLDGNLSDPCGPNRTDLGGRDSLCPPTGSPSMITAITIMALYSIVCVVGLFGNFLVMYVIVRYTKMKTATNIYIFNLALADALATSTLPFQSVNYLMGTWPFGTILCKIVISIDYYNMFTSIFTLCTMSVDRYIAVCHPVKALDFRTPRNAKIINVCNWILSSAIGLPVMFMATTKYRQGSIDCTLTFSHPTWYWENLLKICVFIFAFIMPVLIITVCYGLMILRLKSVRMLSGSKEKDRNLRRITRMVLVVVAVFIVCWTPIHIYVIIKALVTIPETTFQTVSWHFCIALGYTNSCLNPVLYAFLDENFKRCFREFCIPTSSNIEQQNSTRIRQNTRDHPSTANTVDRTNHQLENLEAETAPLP

## CN(CCc1ccccc1)c1oc(C(C2CCC(C(c3cccs3)N(C)C)CC2)N2CCN(Cc3ccccc3)CC2)nc1Cc1ccccc1 (centres unmarked) [compound 54, (4-benzyl-2-{(4-benzyl-piperazin-1-yl)-[4-(dimethylaminothiophen-2-yl-methyl)-cyclohexyl]-methyl}-oxazol-5-yl)-methyl-phenethylamine]
  inhibition at 1 µM: 74%

## CN(C)C(c1cccs1)C1CCC(C(c2nc(Cc3ccccc3)c(N3CCSCC3)o2)N2CCN(Cc3ccccc3)CC2)CC1 (centres unmarked) [compound 55, ({4-[(4-benzylpiperazin-1-yl)-(4-benzyl-5-thiomorpholin-4-yl-oxazol-2-yl)-methyl]-cyclohexyl}-thiophen-2-yl-methyl)-dimethylamine]
  inhibition at 1 µM: 63%

## CN(C)C(c1ccc(Cl)cc1)C1CCC(CC(c2nc(Cc3ccccc3)c(N3CCN(Cc4ccccc4)CC3)o2)N2CCCCC2)CC1 (centres unmarked) [compound 56, [(4-{2-[4-benzyl-5-(4-benzyl-piperazin-1-yl)-oxazol-2-yl]-2-piperidin-1-yl-ethyl}-cyclohexyl)-(4-chlorophenyl)-methyl]-dimethylamine]
  inhibition at 1 µM: 62%

## CC1CCN(c2oc(C(CC3CCC(C(c4ccc(Cl)cc4)N(C)C)CC3)N3CCCCC3)nc2Cc2ccccc2)CC1 (centres unmarked) [compound 57, [(4-{2-[4-benzyl-5-(4-methylpiperidin-1-yl)-oxazol-2-yl]-2-piperidin-1-yl-ethyl}-cyclohexyl)-(4-chlorophenyl)-methyl]-dimethylamine]
  inhibition at 1 µM: 64%

## CN(Cc1ccccc1)c1oc(C(CC2CCC(C(c3ccc(Cl)cc3)N(C)C)CC2)N2CCCCC2)nc1Cc1ccccc1 (centres unmarked) [compound 58, Benzyl-[4-benzyl-2-(2-{4-[(4-chlorophenyl)-dimethylaminomethyl]-cyclohexyl}-1-piperidin-1-yl-ethyl)-oxazol-5-yl]-methylamine]
  inhibition at 1 µM: 73%

## CCN(CC)C(CC1CCC(C(c2ccc(Cl)cc2)N(C)C)CC1)c1nc(Cc2ccccc2)c(N2CCC(Cc3ccccc3)CC2)o1 (centres unmarked) [compound 59, (1-[4-benzyl-5-(4-benzylpiperidin-1-yl)-oxazol-2-yl]-2-{4-[(4-chlorophenyl)-dimethylaminomethyl]-cyclohexyl}-ethyl)-diethylamine]
  inhibition at 1 µM: 60%

## CCN(CC)C(CC1CCC(C(c2ccc(Cl)cc2)N(C)C)CC1)c1nc(Cc2ccccc2)c(N2CCC(C)CC2)o1 (centres unmarked) [compound 60, (1-[4-benzyl-5-(4-methylpiperidin-1-yl)-oxazol-2-yl]-2-{4-[(4-chlorophenyl)-dimethylaminomethyl]-cyclohexyl}-ethyl)-diethylamine]
  inhibition at 1 µM: 68%

## CCN(CC)C(CC1CCC(C(c2ccc(Cl)cc2)N(C)C)CC1)c1nc(Cc2ccccc2)c(N(C)Cc2ccccc2)o1 (centres unmarked) [compound 61, Benzyl-[4-benzyl-2-(2-{4-[(4-chlorophenyl)-dimethylaminomethyl]-cyclohexyl}-1-diethylamino-ethyl)-oxazol-5-yl]-methylamine]
  inhibition at 1 µM: 76%

## CN(C)C(c1ccc(Cl)cc1)C1CCC(CC(c2nc(Cc3ccccc3)c(N3CCC(Cc4ccccc4)CC3)o2)N2CCN(Cc3ccccc3)CC2)CC1 (centres unmarked) [compound 62, [{4-[2-[4-benzyl-5-(4-benzyl-piperidin-1-yl)-oxazol-2-yl]-2-(4-benzyl-piperazin-1-yl)-ethyl]-cyclohexyl}-(4-chlorophenyl)-methyl]-dimethylamine]
  inhibition at 1 µM: 87%

## CN(C)C(c1ccc(Cl)cc1)C1CCC(CC(c2nc(Cc3ccccc3)c(N3CCN(Cc4ccccc4)CC3)o2)N2CCN(Cc3ccccc3)CC2)CC1 (centres unmarked) [compound 63, [{4-[2-[4-benzyl-5-(4-benzylpiperazin-1-yl)-oxazol-2-yl]-2-(4-benzyl-piperazin-1-yl)-ethyl]-cyclohexyl}-(4-chlorophenyl)-methyl]-dimethylamine]
  inhibition at 1 µM: 78%

## CC1CCN(c2oc(C(CC3CCC(C(c4ccc(Cl)cc4)N(C)C)CC3)N3CCN(Cc4ccccc4)CC3)nc2Cc2ccccc2)CC1 (centres unmarked) [compound 64, [{4-[2-[4-benzyl-5-(4-methylpiperidin-1-yl)-oxazol-2-yl]-2-(4-benzyl-piperazin-1-yl)-ethyl]-cyclohexyl}-(4-chlorophenyl)-methyl]-dimethylamine]
  inhibition at 1 µM: 69%

## CC1CCN(c2oc(C(CC3CCC(C(c4ccc(F)cc4)N(C)C)CC3)N3CCCCC3)nc2Cc2ccccc2)CC1 (centres unmarked) [compound 65, [(4-{2-[4-benzyl-5-(4-methylpiperidin-1-yl)-oxazol-2-yl]-2-piperidin-1-yl-ethyl}-cyclohexyl)-(4-fluorophenyl)-methyl]-dimethylamine]
  inhibition at 1 µM: 61%

## CN(Cc1ccccc1)c1oc(C(CC2CCC(C(c3ccc(F)cc3)N(C)C)CC2)N2CCCCC2)nc1Cc1ccccc1 (centres unmarked) [compound 66, Benzyl-[4-benzyl-2-(2-{4-[dimethylamino-(4-fluorophenyl)-methyl]-cyclohexyl}-1-piperidin-1-yl-ethyl)-oxazol-5-yl]-methylamine]
  inhibition at 1 µM: 65%

## CCN(CC)C(CC1CCC(C(c2ccc(F)cc2)N(C)C)CC1)c1nc(Cc2ccccc2)c(N2CCC(Cc3ccccc3)CC2)o1 (centres unmarked) [compound 67, (1-[4-benzyl-5-(4-benzyl-piperidin-1-yl)-oxazol-2-yl]-2-{4-[dimethylamino-(4-fluorophenyl)-methyl]-cyclohexyl}-ethyl)-diethylamine]
  inhibition at 1 µM: 64%

## CCN(CC)C(CC1CCC(C(c2ccc(F)cc2)N(C)C)CC1)c1nc(Cc2ccccc2)c(N2CCN(Cc3ccccc3)CC2)o1 (centres unmarked) [compound 68, (1-[4-benzyl-5-(4-benzyl-piperazin-1-yl)-oxazol-2-yl]-2-{4-[dimethylamino-(4-fluorophenyl)-methyl]-cyclohexyl}-ethyl)-diethylamine]
  inhibition at 1 µM: 60%

## CCN(CC)C(CC1CCC(C(c2ccc(F)cc2)N(C)C)CC1)c1nc(Cc2ccccc2)c(N2CCC(C)CC2)o1 (centres unmarked) [compound 69, (1-[4-benzyl-5-(4-methylpiperidin-1-yl)-oxazol-2-yl]-2-{4-[dimethylamino-(4-fluorophenyl)-methyl]-cyclohexyl}-ethyl)-diethylamine]
  inhibition at 1 µM: 82%

## CCN(CC)C(CC1CCC(C(c2ccc(F)cc2)N(C)C)CC1)c1nc(Cc2ccccc2)c(N(C)Cc2ccccc2)o1 (centres unmarked) [compound 70, Benzyl-[4-benzyl-2-(1-diethylamino-2-{4-[dimethylamino-(4-fluorophenyl)-methyl]-cyclohexyl}-ethyl)-oxazol-5-yl]-methylamine]
  inhibition at 1 µM: 60%

## CC1CCN(c2oc(C(CC3CCC(C(c4ccc(F)cc4)N(C)C)CC3)N3CCN(Cc4ccccc4)CC3)nc2Cc2ccccc2)CC1 (centres unmarked) [compound 71, [{4-[2-[4-benzyl-5-(4-methylpiperidin-1-yl)-oxazol-2-yl]-2-(4-benzyl-piperazin-1-yl)-ethyl]-cyclohexyl}-(4-fluorophenyl)-methyl]-dimethylamine]
  inhibition at 1 µM: 67%

## CN(C)C(c1cccs1)C1CCC(CC(c2nc(Cc3ccccc3)c(N3CCC(Cc4ccccc4)CC3)o2)N2CCCCC2)CC1 (centres unmarked) [compound 72, [(4-{2-[4-benzyl-5-(4-benzyl-piperidin-1-yl)-oxazol-2-yl]-2-piperidin-1-yl-ethyl}-cyclohexyl)-thiophen-2-yl-methyl]-dimethylamine]
  inhibition at 1 µM: 69%

## CN(C)C(c1cccs1)C1CCC(CC(c2nc(Cc3ccccc3)c(N3CCN(Cc4ccccc4)CC3)o2)N2CCCCC2)CC1 (centres unmarked) [compound 73, [(4-{2-[4-benzyl-5-(4-benzyl-piperazin-1-yl)-oxazol-2-yl]-2-piperidin-1-yl-ethyl}-cyclohexyl)-thiophen-2-yl-methyl]-dimethylamine]
  inhibition at 1 µM: 94%
